From the NIST ThermoML archive (doi:10.1021/acs.jced.7b00221)
± gives the expanded uncertainty stated by the source.

Test: xn = mol fraction of the nth substance listed
Conditions: 100 kPa, Liquid, Cone and plate viscometry

CC(=O)[O-].CCCCCCCCCCCCCC[P+](CCCCCC)(CCCCCC)CCCCCC [trihexyl(tetradecyl)phosphonium acetate] + CCCCCC[n+]1ccn(C)c1.O=S(=O)([N-]S(=O)(=O)C(F)(F)F)C(F)(F)F
viscosity [mPa·s]
Conditions | 278.15 K | 283.15 K | 288.15 K | 293.15 K | 298.15 K | 303.15 K | 308.15 K | 313.15 K | 318.15 K | 323.15 K
x1 = 0.101 | 353 ± 45 | 251 ± 31 | 182 ± 22 | 136 ± 17 | 105 ± 13 | 82 ± 10 | 66 ± 8 | 53 ± 6 | – | –
x1 = 0.199 | 579 ± 75 | 404 ± 51 | 286 ± 36 | 209 ± 26 | 156 ± 19 | 120 ± 15 | 94 ± 11 | 75 ± 9 | 61 ± 7 | –
x1 = 0.3 | 946 ± 130 | 644 ± 84 | 447 ± 57 | 319 ± 40 | 235 ± 29 | 177 ± 22 | 136 ± 17 | 107 ± 13 | 85 ± 10 | 70 ± 8
x1 = 0.4 | 1403 ± 190 | 939 ± 120 | 640 ± 83 | 449 ± 57 | 324 ± 41 | 239 ± 30 | 181 ± 22 | 140 ± 17 | 110 ± 13 | 88 ± 11
x1 = 0.499 | 2057 ± 290 | 1345 ± 180 | 901 ± 120 | 621 ± 81 | 440 ± 56 | 320 ± 40 | 238 ± 30 | 181 ± 22 | 141 ± 17 | 112 ± 14
x1 = 0.6 | 2588 ± 360 | 1669 ± 230 | 1100 ± 150 | 746 ± 98 | 523 ± 67 | 376 ± 48 | 277 ± 35 | 207 ± 26 | 159 ± 19 | 124 ± 15
x1 = 0.699 | 2721 ± 380 | 1763 ± 240 | 1160 ± 160 | 785 ± 100 | 530 ± 68 | 381 ± 48 | 279 ± 35 | 208 ± 26 | 159 ± 19 | 125 ± 15
x1 = 0.799 | 2877 ± 410 | 1850 ± 260 | 1219 ± 160 | 827 ± 110 | 578 ± 75 | 414 ± 53 | 304 ± 38 | 228 ± 28 | 175 ± 21 | 137 ± 17
x1 = 0.899 | 2415 ± 340 | 1575 ± 220 | 1047 ± 140 | 717 ± 94 | 505 ± 65 | 366 ± 46 | 271 ± 34 | 204 ± 25 | 158 ± 19 | 123 ± 15
